{
  "source": "paper PMC7316778",
  "about": "(Nature Communications, 2020)",
  "test_in_all_cases": "SelectScreen kinase assay",
  "key": {"AURKC (Aurora C)": {"target": "T1, AURKC (Aurora C) (Homo sapiens, UniProt Q9UQB9)", "T1 sequence (Q9UQB9 1-309)": "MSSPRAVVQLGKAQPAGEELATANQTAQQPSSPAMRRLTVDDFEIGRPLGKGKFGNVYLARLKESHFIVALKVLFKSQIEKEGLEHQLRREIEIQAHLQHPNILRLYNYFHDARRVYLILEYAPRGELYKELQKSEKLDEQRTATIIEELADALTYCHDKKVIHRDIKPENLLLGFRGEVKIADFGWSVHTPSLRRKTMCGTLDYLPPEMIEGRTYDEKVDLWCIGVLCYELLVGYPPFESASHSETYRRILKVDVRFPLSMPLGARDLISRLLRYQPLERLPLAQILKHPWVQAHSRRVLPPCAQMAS", "description": "(§1) Selectivity profiling assays were performed by the Invitrogen SelectScreen™ Services. […] The concentration of ATP was selected to be equal to the KM, unless indicated otherwise."}, "BMPR1A (ALK3)": {"target": "BMPR1A (ALK3) (Homo sapiens, UniProt P36894)", "sequence (P36894 24-532)": "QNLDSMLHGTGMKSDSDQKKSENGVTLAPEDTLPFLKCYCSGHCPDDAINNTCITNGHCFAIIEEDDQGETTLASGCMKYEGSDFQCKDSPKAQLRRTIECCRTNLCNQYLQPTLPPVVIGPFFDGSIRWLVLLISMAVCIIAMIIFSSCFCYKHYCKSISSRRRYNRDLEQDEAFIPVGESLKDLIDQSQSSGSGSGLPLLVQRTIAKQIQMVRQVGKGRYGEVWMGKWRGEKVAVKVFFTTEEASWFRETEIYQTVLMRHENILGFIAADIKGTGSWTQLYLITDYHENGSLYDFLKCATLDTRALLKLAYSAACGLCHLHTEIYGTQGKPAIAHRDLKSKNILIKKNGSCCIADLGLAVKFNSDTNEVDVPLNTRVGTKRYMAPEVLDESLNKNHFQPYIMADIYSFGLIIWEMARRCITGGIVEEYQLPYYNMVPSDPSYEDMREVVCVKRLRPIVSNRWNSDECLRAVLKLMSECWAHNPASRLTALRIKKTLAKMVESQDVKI", "details": "for Inhibition at 1 µM (%): BMPR1A (ALK3), LanthaScreen Binding", "description": "as §1"}, "DCAMKL2 (DCK2)": {"target": "T2, DCAMKL2 (DCK2) (Homo sapiens, UniProt Q8N568)", "T2 sequence (Q8N568 1-766)": "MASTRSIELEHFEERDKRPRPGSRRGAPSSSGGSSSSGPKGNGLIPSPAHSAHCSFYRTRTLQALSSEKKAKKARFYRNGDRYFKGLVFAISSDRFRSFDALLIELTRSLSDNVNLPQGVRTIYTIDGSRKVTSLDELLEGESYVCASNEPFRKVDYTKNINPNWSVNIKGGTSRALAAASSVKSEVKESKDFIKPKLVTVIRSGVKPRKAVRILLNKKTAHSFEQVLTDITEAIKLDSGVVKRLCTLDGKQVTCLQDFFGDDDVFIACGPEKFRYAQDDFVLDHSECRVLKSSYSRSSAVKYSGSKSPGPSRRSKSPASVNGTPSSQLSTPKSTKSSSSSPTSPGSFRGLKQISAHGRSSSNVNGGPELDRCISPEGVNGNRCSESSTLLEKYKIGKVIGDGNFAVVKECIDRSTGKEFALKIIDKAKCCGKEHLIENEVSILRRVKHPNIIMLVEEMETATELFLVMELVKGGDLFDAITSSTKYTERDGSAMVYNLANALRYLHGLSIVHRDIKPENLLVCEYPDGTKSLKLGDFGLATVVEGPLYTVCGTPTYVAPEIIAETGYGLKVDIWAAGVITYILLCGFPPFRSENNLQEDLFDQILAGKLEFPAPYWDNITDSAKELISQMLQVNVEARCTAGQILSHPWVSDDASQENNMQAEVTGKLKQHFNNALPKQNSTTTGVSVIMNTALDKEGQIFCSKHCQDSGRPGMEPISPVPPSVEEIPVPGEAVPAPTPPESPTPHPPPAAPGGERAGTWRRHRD", "description": "as §1"}, "FGFR1": {"target": "FGFR1 (Homo sapiens, UniProt P11362)", "sequence (P11362 22-822)": "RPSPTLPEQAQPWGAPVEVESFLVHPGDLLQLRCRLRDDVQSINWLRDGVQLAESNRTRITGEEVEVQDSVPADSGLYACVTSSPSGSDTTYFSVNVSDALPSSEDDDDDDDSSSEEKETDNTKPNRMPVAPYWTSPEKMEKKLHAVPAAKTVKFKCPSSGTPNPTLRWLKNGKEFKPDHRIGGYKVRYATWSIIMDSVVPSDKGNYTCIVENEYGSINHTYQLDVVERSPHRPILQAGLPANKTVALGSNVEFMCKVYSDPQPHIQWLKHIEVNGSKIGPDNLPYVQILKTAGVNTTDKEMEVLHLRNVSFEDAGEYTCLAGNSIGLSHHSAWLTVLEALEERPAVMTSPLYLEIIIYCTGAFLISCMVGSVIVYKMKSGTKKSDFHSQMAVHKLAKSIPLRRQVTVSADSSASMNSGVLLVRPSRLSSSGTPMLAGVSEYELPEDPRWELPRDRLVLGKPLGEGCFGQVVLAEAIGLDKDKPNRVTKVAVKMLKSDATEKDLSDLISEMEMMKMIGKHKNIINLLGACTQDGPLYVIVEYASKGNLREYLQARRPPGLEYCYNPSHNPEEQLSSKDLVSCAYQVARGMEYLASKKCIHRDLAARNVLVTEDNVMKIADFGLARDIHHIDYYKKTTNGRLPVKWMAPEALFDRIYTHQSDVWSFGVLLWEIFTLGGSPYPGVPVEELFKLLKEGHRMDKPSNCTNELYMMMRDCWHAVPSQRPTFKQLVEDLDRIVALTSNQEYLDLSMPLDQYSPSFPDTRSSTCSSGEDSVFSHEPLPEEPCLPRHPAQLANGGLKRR", "description": "as §1"}, "MKNK2 (MNK2)": {"target": "MKNK2 (MNK2) (Homo sapiens, UniProt Q9HBH9)", "sequence (Q9HBH9 whole entry, species assumed)": "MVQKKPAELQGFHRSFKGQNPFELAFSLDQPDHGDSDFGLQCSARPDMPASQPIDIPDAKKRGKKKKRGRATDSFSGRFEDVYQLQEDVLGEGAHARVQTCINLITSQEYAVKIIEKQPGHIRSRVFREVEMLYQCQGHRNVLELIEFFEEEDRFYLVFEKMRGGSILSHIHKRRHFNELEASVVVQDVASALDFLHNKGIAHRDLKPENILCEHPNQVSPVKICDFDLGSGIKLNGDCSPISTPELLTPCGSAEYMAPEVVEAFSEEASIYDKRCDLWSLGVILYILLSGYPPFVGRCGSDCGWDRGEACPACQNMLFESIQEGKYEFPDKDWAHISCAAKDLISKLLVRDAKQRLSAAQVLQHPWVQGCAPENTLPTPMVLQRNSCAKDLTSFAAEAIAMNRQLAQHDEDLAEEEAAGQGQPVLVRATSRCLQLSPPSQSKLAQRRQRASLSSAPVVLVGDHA", "description": "as §1"}, "PAK2 (PAK65)": {"target": "PAK2 (PAK65) (Homo sapiens, UniProt Q13177)", "sequence (Q13177 whole entry)": "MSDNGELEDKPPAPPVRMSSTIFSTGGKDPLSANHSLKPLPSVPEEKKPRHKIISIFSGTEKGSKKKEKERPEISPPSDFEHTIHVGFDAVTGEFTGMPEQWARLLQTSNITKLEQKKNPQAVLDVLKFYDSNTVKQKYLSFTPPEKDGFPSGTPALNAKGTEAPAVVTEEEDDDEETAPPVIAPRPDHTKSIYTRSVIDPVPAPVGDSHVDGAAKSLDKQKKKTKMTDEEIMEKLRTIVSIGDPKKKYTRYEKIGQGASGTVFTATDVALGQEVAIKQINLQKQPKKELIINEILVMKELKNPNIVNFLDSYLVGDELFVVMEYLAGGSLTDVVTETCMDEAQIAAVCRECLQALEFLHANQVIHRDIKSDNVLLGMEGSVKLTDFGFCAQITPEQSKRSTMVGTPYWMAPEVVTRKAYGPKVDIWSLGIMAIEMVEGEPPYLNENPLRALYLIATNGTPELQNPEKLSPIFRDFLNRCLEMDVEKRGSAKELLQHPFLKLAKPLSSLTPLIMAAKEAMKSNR", "description": "as §1"}, "PAK3": {"target": "PAK3 (Homo sapiens, UniProt O75914)", "sequence (O75914 whole entry)": "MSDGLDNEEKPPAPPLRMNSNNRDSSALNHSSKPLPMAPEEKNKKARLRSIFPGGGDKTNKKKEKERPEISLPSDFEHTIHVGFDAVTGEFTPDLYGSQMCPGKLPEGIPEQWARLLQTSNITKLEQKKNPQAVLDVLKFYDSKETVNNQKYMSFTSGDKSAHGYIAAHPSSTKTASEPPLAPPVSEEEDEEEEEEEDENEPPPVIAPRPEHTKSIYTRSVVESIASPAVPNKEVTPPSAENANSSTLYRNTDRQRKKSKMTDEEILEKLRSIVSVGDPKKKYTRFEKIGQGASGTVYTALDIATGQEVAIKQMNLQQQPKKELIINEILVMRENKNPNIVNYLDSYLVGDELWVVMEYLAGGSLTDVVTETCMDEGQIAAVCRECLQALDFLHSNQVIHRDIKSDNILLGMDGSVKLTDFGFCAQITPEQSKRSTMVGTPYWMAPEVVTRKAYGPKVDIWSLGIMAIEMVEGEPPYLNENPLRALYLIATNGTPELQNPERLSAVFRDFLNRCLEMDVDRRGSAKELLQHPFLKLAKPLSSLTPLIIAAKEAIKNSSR", "description": "as §1"}, "PIP5K1A": {"target": "PIP5K1A (Homo sapiens, UniProt Q99755)", "sequence (Q99755 whole entry)": "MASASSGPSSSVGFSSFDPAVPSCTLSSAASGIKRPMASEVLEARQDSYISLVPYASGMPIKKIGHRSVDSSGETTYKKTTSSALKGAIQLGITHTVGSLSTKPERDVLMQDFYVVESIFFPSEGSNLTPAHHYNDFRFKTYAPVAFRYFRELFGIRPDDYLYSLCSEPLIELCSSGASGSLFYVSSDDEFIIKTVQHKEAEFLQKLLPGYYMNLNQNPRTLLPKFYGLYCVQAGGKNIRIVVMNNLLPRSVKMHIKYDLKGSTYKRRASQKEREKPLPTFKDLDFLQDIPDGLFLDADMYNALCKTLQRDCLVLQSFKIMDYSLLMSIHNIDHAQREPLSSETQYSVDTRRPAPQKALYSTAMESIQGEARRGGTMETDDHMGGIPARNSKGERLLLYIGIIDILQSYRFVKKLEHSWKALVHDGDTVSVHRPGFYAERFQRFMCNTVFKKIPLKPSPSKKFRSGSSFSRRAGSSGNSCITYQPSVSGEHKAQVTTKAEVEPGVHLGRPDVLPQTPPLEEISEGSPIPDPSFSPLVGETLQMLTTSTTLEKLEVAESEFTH", "description": "as §1"}, "PLK3": {"target": "PLK3 (Homo sapiens, UniProt Q9H4B4)", "sequence (Q9H4B4 whole entry)": "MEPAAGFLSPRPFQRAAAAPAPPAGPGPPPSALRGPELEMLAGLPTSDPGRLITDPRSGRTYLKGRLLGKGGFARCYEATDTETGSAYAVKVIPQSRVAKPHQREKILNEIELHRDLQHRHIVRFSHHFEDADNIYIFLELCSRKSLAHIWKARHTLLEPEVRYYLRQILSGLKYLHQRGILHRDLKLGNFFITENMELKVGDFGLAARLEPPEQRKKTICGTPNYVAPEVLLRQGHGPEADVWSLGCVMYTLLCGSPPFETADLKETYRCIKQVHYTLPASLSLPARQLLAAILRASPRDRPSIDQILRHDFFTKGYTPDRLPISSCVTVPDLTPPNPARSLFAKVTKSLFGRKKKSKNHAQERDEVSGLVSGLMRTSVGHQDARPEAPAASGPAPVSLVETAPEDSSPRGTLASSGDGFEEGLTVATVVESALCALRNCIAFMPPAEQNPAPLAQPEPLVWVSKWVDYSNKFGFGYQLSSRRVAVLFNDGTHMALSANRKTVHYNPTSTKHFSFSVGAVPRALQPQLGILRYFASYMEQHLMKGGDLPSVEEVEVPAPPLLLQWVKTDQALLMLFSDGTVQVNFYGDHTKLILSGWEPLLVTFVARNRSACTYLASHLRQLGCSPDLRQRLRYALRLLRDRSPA", "description": "as §1"}, "PRKCB2 (PKC beta II)": {"target": "PRKCB2 (PKC beta II) (Homo sapiens, UniProt P05771)", "details": "1 h, 1 μM WEL028, 1 h preincubation", "description": "as §1"}, "TNK1": {"target": "T3, TNK1 (Homo sapiens, UniProt Q13470)", "T3 sequence (Q13470 1-666)": "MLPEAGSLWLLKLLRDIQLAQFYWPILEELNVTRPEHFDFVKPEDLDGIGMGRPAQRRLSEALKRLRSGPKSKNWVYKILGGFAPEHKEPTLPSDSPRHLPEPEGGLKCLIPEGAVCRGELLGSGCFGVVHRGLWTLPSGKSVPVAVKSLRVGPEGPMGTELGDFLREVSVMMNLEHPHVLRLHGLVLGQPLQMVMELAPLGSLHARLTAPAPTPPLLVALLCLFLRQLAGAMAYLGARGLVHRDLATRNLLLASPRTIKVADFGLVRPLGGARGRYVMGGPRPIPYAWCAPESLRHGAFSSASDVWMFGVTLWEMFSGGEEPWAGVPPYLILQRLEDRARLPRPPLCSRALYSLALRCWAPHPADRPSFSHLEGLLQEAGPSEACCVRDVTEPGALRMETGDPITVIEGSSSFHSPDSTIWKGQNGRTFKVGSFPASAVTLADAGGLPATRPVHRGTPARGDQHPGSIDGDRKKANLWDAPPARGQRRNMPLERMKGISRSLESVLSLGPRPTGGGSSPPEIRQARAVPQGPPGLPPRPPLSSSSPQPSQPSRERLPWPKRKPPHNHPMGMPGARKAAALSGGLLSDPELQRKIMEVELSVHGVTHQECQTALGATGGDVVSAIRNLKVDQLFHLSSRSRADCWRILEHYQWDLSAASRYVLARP", "description": "as §1"}, "ZAK": {"target": "ZAK (Homo sapiens, UniProt Q9NYL2)", "sequence (Q9NYL2 whole entry)": "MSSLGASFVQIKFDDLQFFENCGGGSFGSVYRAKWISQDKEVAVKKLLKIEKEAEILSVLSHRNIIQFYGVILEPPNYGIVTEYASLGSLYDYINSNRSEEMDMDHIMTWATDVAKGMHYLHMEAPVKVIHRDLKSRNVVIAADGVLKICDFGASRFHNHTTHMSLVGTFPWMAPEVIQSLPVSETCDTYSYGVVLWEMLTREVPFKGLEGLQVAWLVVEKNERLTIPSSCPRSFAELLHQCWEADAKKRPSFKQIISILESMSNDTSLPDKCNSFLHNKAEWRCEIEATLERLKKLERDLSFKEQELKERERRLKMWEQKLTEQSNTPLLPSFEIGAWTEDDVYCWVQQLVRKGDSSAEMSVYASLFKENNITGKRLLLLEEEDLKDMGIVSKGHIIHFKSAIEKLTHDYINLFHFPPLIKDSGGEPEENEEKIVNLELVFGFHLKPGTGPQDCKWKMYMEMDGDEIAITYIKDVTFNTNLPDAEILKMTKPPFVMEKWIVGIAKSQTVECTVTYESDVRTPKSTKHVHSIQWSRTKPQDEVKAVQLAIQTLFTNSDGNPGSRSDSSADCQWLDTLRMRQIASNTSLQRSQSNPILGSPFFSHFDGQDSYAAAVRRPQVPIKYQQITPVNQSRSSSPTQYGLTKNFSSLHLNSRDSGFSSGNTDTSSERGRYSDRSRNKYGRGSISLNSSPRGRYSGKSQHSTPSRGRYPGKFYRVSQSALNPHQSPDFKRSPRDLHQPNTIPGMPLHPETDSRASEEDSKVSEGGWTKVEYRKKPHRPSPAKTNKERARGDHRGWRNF", "details": "for Inhibition at 1 µM (%): LanthaScreen Binding", "description": "as §1"}, "[1]": {"details": "1 h, 1 μM WEL028, 1 h preincubation"}},
  "note": "Several values for one entry are separate records, joined by “and”; a condition that tells them apart may be missing. Equal entries are not always repeated. Where two headings read alike, the source gives them in different places.",
  "data": [
    {"smiles": "C#CCOc1ccc(Nc2ncc(Cl)c(Nc3ccccc3NC(=O)C=C)n2)c(OC)c1", "note": "[Compound 6]", "values": [
      {"measurement": "inhibition at 1 µM", "setting": "AURKC (Aurora C); [1]", "value": 37, "unit": "%"},
      {"measurement": "Inhibition at 1 µM (%)", "setting": "AURKC (Aurora C); AURKC (Aurora C), 1 µM, ZLYTE, ATP Km app, listed as WEL028, 1 µM", "value": 41, "unit": "%"},
      {"measurement": "inhibition at 1 µM", "setting": "AURKC (Aurora C); read-out: Inhibition at 1 µM (%), AURKC (Aurora C), 1 µM, ZLYTE, ATP Km app", "value": 33, "unit": "%"},
      {"measurement": "inhibition at 1 µM", "setting": "BMPR1A (ALK3); [1]", "value": -2, "unit": "%"},
      {"measurement": "Inhibition at 1 µM (%)", "setting": "BMPR1A (ALK3)", "value": 2, "unit": "%"},
      {"measurement": "Inhibition at 1 µM (%)", "setting": "BMPR1A (ALK3); listed as WEL028, 1 µM", "value": -6, "unit": "%"},
      {"measurement": "inhibition at 1 µM", "setting": "DCAMKL2 (DCK2); [1]", "value": 3, "unit": "%"},
      {"measurement": "Inhibition at 1 µM (%)", "setting": "DCAMKL2 (DCK2); DCAMKL2 (DCK2), 1 µM, ZLYTE, ATP Km app, listed as WEL028, 1 µM", "value": 2, "unit": "%"},
      {"measurement": "inhibition at 1 µM", "setting": "DCAMKL2 (DCK2); read-out: Inhibition at 1 µM (%), DCAMKL2 (DCK2), 1 µM, ZLYTE, ATP Km app", "value": 4, "unit": "%"},
      {"measurement": "inhibition at 1 µM", "setting": "FGFR1; [1]", "value": 3, "unit": "%"},
      {"measurement": "Inhibition at 1 µM (%)", "setting": "FGFR1; FGFR1, 1 µM, ZLYTE, ATP Km app, listed as WEL028, 1 µM", "value": "5% and 1%"},
      {"measurement": "IC50", "setting": "MKNK2 (MNK2)", "value": 0.1, "unit": "µM"},
      {"measurement": "inhibition at 1 µM", "setting": "MKNK2 (MNK2); [1]", "value": 93, "unit": "%"},
      {"measurement": "inhibition at 10 µM", "setting": "MKNK2 (MNK2); 1 h, log[inhibitor] (M) -5.00, LanthaScreen Binding", "value": 83, "unit": "%"},
      {"measurement": "inhibition at 3.311 µM", "setting": "MKNK2 (MNK2); 1 h, log[inhibitor] (M) -5.48, LanthaScreen Binding", "value": 97, "unit": "%"},
      {"measurement": "inhibition at 1.122 µM", "setting": "MKNK2 (MNK2); 1 h, log[inhibitor] (M) -5.95, LanthaScreen Binding", "value": 94, "unit": "%"},
      {"measurement": "inhibition at 0.3715 µM", "setting": "MKNK2 (MNK2); 1 h, log[inhibitor] (M) -6.43, LanthaScreen Binding", "value": 82, "unit": "%"},
      {"measurement": "inhibition at 0.123 µM", "setting": "MKNK2 (MNK2); 1 h, log[inhibitor] (M) -6.91, LanthaScreen Binding", "value": 54, "unit": "%"},
      {"measurement": "inhibition at 0.0138 µM", "setting": "MKNK2 (MNK2); 1 h, log[inhibitor] (M) -7.86, LanthaScreen Binding", "value": 13, "unit": "%"},
      {"measurement": "inhibition at 0.0004898 µM", "setting": "MKNK2 (MNK2); 1 h, log[inhibitor] (M) -9.31, LanthaScreen Binding", "value": 4, "unit": "%"},
      {"measurement": "Apparent fold selectivity", "setting": "MKNK2 (MNK2); IC50 on that kinase divided by IC50 on FES^S700C", "value": 23, "unit": "fold"},
      {"measurement": "Inhibition at 1 µM (%)", "setting": "MKNK2 (MNK2); MKNK2 (MNK2), 1 µM, LanthaScreen Binding, listed as WEL028, 1 µM", "value": 96, "unit": "%"},
      {"measurement": "inhibition at 1 µM", "setting": "MKNK2 (MNK2); read-out: Inhibition at 1 µM (%), MKNK2 (MNK2), 1 µM, LanthaScreen Binding", "value": 89, "unit": "%"},
      {"measurement": "inhibition at 1 µM", "setting": "PAK2 (PAK65); [1]", "value": 29, "unit": "%"},
      {"measurement": "Inhibition at 1 µM (%)", "setting": "PAK2 (PAK65); PAK2 (PAK65), 1 µM, ZLYTE, ATP Km app, listed as WEL028, 1 µM", "value": 23, "unit": "%"},
      {"measurement": "inhibition at 1 µM", "setting": "PAK2 (PAK65); read-out: Inhibition at 1 µM (%), PAK2 (PAK65), 1 µM, ZLYTE, ATP Km app", "value": 35, "unit": "%"},
      {"measurement": "inhibition at 1 µM", "setting": "PAK3; [1]", "value": 7, "unit": "%"},
      {"measurement": "Inhibition at 1 µM (%)", "setting": "PAK3; PAK3, 1 µM, ZLYTE, ATP Km app, listed as WEL028, 1 µM", "value": 6, "unit": "%"},
      {"measurement": "inhibition at 1 µM", "setting": "PAK3; read-out: Inhibition at 1 µM (%), PAK3, 1 µM, ZLYTE, ATP Km app", "value": 7, "unit": "%"},
      {"measurement": "inhibition at 1 µM", "setting": "PIP5K1A; [1]", "value": -3, "unit": "%"},
      {"measurement": "Inhibition at 1 µM (%)", "setting": "PIP5K1A; PIP5K1A, 1 µM, Adapta, ATP 10, listed as WEL028, 1 µM", "value": "1% and -7%"},
      {"measurement": "inhibition at 1 µM", "setting": "PLK3; [1]", "value": -1, "unit": "%"},
      {"measurement": "Inhibition at 1 µM (%)", "setting": "PLK3; PLK3, 1 µM, ZLYTE, ATP Km app, listed as WEL028, 1 µM", "value": "2% and -3%"},
      {"measurement": "inhibition at 1 µM", "setting": "PRKCB2 (PKC beta II)", "value": 0, "unit": "%"},
      {"measurement": "Inhibition at 1 µM (%)", "setting": "TNK1; 1 µM, ZLYTE, ATP Km app", "value": 41, "unit": "%"},
      {"measurement": "inhibition at 1 µM", "setting": "TNK1; 1 h", "value": 41, "unit": "%"},
      {"measurement": "inhibition at 1 µM", "setting": "TNK1; read-out: Inhibition at 1 µM (%)", "value": 41, "unit": "%"},
      {"measurement": "Inhibition at 1 µM (%)", "setting": "ZAK", "value": 2, "unit": "%"},
      {"measurement": "Inhibition at 1 µM (%)", "setting": "ZAK; listed as WEL028, 1 µM", "value": 6, "unit": "%"},
      {"measurement": "inhibition at 1 µM", "setting": "ZAK; [1]", "value": 4, "unit": "%"}
    ]}
  ]
}
